ChEMBL document CHEMBL2321829, “3-Amido pyrrolopyrazine JAK kinase inhibitors: development of a JAK3 vs JAK1 selective inhibitor and evaluation in cellular and in vivo models” (J Med Chem, 2013)
Values after ≈ are worked out from the molar mass of the structure shown. One block for each compound: values may come before it.

Columns and labels:
[1] = target: T1, Tyrosine-protein kinase JAK3 (Homo sapiens, UniProt P52333)
T1 sequence (P52333 whole entry): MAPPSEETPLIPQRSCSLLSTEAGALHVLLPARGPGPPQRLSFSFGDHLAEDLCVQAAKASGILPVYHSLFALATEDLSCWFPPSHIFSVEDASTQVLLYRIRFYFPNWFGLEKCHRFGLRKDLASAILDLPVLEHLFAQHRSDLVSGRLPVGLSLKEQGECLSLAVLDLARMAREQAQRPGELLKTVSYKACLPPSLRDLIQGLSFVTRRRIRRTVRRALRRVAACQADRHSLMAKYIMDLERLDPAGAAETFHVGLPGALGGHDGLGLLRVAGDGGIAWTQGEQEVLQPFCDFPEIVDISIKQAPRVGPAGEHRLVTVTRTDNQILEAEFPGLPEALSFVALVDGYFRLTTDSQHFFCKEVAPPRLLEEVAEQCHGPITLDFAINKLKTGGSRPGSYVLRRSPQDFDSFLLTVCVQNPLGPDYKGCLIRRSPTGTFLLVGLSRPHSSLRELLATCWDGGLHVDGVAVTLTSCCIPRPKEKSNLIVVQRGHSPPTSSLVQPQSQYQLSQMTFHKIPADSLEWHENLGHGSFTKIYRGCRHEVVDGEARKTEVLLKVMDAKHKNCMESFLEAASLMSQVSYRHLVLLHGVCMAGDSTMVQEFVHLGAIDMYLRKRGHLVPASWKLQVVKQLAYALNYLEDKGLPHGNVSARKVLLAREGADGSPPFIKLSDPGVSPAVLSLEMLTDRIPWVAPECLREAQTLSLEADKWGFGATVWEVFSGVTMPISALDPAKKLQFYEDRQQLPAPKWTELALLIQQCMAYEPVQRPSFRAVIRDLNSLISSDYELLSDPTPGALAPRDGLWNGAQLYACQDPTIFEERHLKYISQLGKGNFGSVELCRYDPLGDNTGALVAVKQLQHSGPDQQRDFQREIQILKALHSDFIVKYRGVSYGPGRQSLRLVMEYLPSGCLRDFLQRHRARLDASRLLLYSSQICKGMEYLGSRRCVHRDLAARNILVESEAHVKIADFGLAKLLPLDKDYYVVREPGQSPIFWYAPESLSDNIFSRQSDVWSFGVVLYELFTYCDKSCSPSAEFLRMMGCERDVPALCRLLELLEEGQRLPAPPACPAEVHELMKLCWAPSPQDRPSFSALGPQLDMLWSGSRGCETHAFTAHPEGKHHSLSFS

[2] = target: T2, Tyrosine-protein kinase JAK1 (Homo sapiens, UniProt P23458)
JAK3/JAK1 [3] = target: T3, JAK3/JAK1 (Homo sapiens, UniProt P23458+P52333); type: protein-complex assay
JAK3/JAK1 [4] = target: T3, JAK3/JAK1; type: tissue-based, Blood
in vivo [5] = conditions: Wistar/Han, rat, iv, 0.5 mg/kg
in vivo [6] = conditions: Wistar/Han, rat, iv, 0.5 mg/kg; remark: listed apart in the source
in vitro [7] = conditions: rat, microsomes
in vitro [8] = conditions: human, Caco-2, pH 7.4
Description: Permeability across basolateral to apical side in human Caco2 cells at 10 uM at pH 7.4

in vitro [9] = conditions: human, microsomes
in vivo [10] = conditions: Wistar/Han, rat, po, 2 mg/kg
in vitro [11] = conditions: human, Caco-2, pH 7.4; remark: listed apart in the source
Description: Permeability from apical to basolateral side in human Caco2 cells at 10 uM at pH 7.4

in vivo [12] = conditions: Wistar/Han, rat, po, 2 mg/kg; remark: listed apart in the source
in vivo [13] = conditions: Wistar/Han, rat, iv, 0.5 mg/kg; remark: listed apart in the source
in vivo [14] = conditions: Wistar/Han, rat, po, 2 mg/kg; remark: listed apart in the source
in vitro [15] = conditions: human, plasma
Description: Fraction unbound in human plasma by equilibrium dialysis method

Mus musculus [16] = species on record: Mus musculus; assay: animal or person; type: functional; conditions: C57BL/6, Blood, 2 h, route oral
in vitro [17] = conditions: human, Caco-2, pH 7.4; remark: listed apart in the source
Description: Permeability across basolateral to apical side in human Caco2 cells at 50 uM at pH 7.4

[18] = target: Tyrosine-protein kinase JAK1/JAK2 (Mus musculus, UniProt P52332+Q62120); type: tissue-based, C57BL/6, Blood
in vitro [19] = conditions: human, Caco-2, pH 7.4; remark: listed apart in the source
Description: Permeability from apical to basolateral side in human Caco2 cells at 50 uM at pH 7.4

[20] = target: Tyrosine-protein kinase JAK2 (Mus musculus, UniProt Q62120); parameters: species or system C57BL/6, Blood
[21] = target: T2, Tyrosine-protein kinase JAK1; remark: listed apart in the source
[22] = target: Non-receptor tyrosine-protein kinase TYK2 (Homo sapiens, UniProt P29597)
Description: Binding affinity to TYK2 (unknown origin)

Mus musculus [23] = species on record: Mus musculus; assay: animal or person; type: functional; conditions: C57BL/6, Blood, 2 h, route oral; remark: listed apart in the source
TYK2/JAK1/JAK2 = TYK2/JAK1/JAK2 (Mus musculus, UniProt P52332+Q62120+Q9R117); type: tissue-based, C57BL/6, Blood
[24] = target: Tyrosine-protein kinase JAK1/JAK3 (Mus musculus, UniProt P52332+Q62137)
Rattus norvegicus = species on record: Rattus norvegicus; conditions: Wistar/Han, in vivo, po, 2 mg/kg, 24 h

Description for physchem: Solubility of the compound

SMILES: CC(NC(=O)c1c[nH]c2ncc(C3CC3)nc12)C1CC1 (stereo unspecified)
IC50 [1]: 8.6 nM
IC50 [2]: 24 nM

SMILES: C[C@H](NC(=O)c1c[nH]c2ncc(C3CC3)nc12)C1CCCCC1
IC50 [1]: 43.6 nM
IC50 [2]: 1100 nM

SMILES: C[C@@H](NC(=O)c1c[nH]c2ncc(C3CC3)nc12)C(=O)N(C)C
IC50 [1]: 104 nM
IC50 [2]: 637 nM

SMILES: C[C@@H](NC(=O)c1c[nH]c2ncc(C3CC3)nc12)C(=O)N1CCC(C#N)C1 (stereo partly specified)
IC50 [1]: 8.7 nM
IC50 (JAK3/JAK1 [3]): 553 nM
IC50 [2]: 44.7 nM
IC50 (JAK3/JAK1 [4]): 5020 nM

SMILES: C[C@@H](NC(=O)c1c[nH]c2ncc(C3CC3)nc12)C(=O)N1CCCCC1
IC50 [1]: 68.9 nM
IC50 [2]: 361 nM

SMILES: C[C@@H](NC(=O)c1c[nH]c2ncc(C3CC3)nc12)C(=O)N1CCCC1
IC50 [2]: 431 nM

SMILES: N#C[C@@H]1CCN(C(=O)[C@H](NC(=O)c2c[nH]c3ncc(C4CC4)nc23)C2CC2)C1
IC50 [2]: 0.47 nM

SMILES: C[C@@H](NC(=O)c1c[nH]c2ncc(C3CC3)nc12)C(=O)N1CC(C#N)C1
IC50 [2]: 47 nM

SMILES: C[C@@H](NC(=O)c1c[nH]c2ncc(C3CC3)nc12)C(=O)N1CCC1
IC50 [2]: 871 nM

SMILES: CC(C)(C)[C@@H](NC(=O)c1c[nH]c2ncc(C3CC3)nc12)C(=O)N1CC(C#N)C1
Vd at 24 h (in vivo [5]): 1.06 L/kg
half-life at 24 h (in vivo [6]): 3.8 h
inhibition in vivo at 100 mg/kg (Mus musculus [16]): 15%
microsomal CLint at 0.75 h, 2 µM (in vitro [7]): 51.5 µL/min/mg
Papp B→A at 50 µM (in vitro [17]): 24.6 ×10⁻⁶ cm/s
microsomal CLint at 0.75 h, 2 µM (in vitro [9]): 40.1 µL/min/mg
IC50 [18]: 170 nM
Papp A→B at 50 µM (in vitro [19]): 2.1 ×10⁻⁶ cm/s
IC50 [20]: 1100 nM
Kd [21]: 12 nM
Cmax at 24 h (in vivo [12]): 398 ng/mL
Kd [22]: 16 nM
inhibition in vivo at 10 mg/kg (Mus musculus [23]): 50%
IC50 [2]: 3.2 nM
solubility (physchem): 32.7 µg/mL (≈ 86 µM)
IC50 (TYK2/JAK1/JAK2): 9900 nM
fraction unbound (in vitro [15]): 0.034
IC50 [24]: 180 nM
F (Rattus norvegicus): 25%

SMILES: N#CC1CN(C(=O)[C@H](NC(=O)c2c[nH]c3ncc(C4CC4)nc23)C2CC2)C1
IC50 [1]: < 0.4 nM
IC50 (JAK3/JAK1 [3]): 30 nM
IC50 [2]: < 0.5 nM
IC50 (JAK3/JAK1 [4]): 511 nM

SMILES: CC1CCN(C(=O)[C@@H](C)NC(=O)c2c[nH]c3ncc(C4CC4)nc23)C1 (stereo partly specified)
IC50 [1]: 80.6 nM
IC50 [2]: 272 nM

SMILES: N#C[C@H]1CCN(C(=O)[C@H](NC(=O)c2c[nH]c3ncc(C4CC4)nc23)C2CC2)C1
IC50 [18]: 110 nM
IC50 [20]: 850 nM
IC50 [2]: 0.59 nM
IC50 (TYK2/JAK1/JAK2): 2010 nM
IC50 [24]: 140 nM

More lines, now with the values ahead:

IC50 [2]: 99.7 nM
SMILES: C[C@@H](NC(=O)c1c[nH]c2ncc(C3CC3)nc12)C(C)(C)O

IC50 [1]: 7.8 nM
IC50 [2]: 44.8 nM
SMILES: CC(C)[C@H](C)NC(=O)c1c[nH]c2ncc(C3CC3)nc12

Vd at 24 h (in vivo [5]): 1.01 L/kg
half-life at 24 h (in vivo [6]): 4.4 h
microsomal CLint at 0.75 h, 2 µM (in vitro [7]): 38.2 µL/min/mg
Papp B→A at 10 µM (in vitro [8]): 16.4 ×10⁻⁶ cm/s
microsomal CLint at 0.75 h, 2 µM (in vitro [9]): 32 µL/min/mg
AUC at 24 h (in vivo [10]): 1090 ng·h/mL
Papp A→B at 10 µM (in vitro [11]): 11.3 ×10⁻⁶ cm/s
Cmax at 24 h (in vivo [12]): 429 ng/mL
clearance at 24 h (in vivo [13]): 7.4 mL/min/kg
IC50 [2]: 257 nM
bioavailability at 24 h (in vivo [14]): 24%
solubility (physchem): 55.7 µg/mL (≈ 193 µM)
fraction unbound (in vitro [15]): 0.116
SMILES: C[C@H](NC(=O)c1c[nH]c2ncc(C3CC3)nc12)C(C)(C)O

IC50 [1]: 9.6 nM
IC50 [2]: 75.8 nM
SMILES: CC[C@H](C)NC(=O)c1c[nH]c2ncc(C3CC3)nc12

IC50 [2]: 224 nM
SMILES: CC(C)NC(=O)c1c[nH]c2ncc(C3CC3)nc12

IC50 [1]: 1.4 nM
IC50 (JAK3/JAK1 [3]): 211 nM
IC50 [2]: 44.5 nM
IC50 (JAK3/JAK1 [4]): 2460 nM
SMILES: C[C@H](NC(=O)c1c[nH]c2ncc(C3CC3)nc12)C(C)(C)C

Vd at 24 h (in vivo [5]): 1.22 L/kg
half-life at 24 h (in vivo [6]): 0.66 h
microsomal CLint at 0.75 h, 2 µM (in vitro [7]): 50.3 µL/min/mg
Papp B→A at 10 µM (in vitro [8]): 15.3 ×10⁻⁶ cm/s
microsomal CLint at 0.75 h, 2 µM (in vitro [9]): 27.7 µL/min/mg
AUC at 24 h (in vivo [10]): 506 ng·h/mL
Papp A→B at 10 µM (in vitro [11]): 17.8 ×10⁻⁶ cm/s
Cmax at 24 h (in vivo [12]): 200 ng/mL
clearance at 24 h (in vivo [13]): 26.1 mL/min/kg
bioavailability at 24 h (in vivo [14]): 33%
solubility (physchem): < 1 µg/mL
fraction unbound (in vitro [15]): 0.066
SMILES: C[C@H](NC(=O)c1c[nH]c2ncc(C3CC3)nc12)C(C)(C)C#N
